Data: ChEMBL document CHEMBL3108691, “Structural investigation of cycloheptathiophene-3-carboxamide derivatives targeting influenza virus polymerase assembly” (J Med Chem, 2013)

What was measured:
[1] = Cytotoxicity against MDCK cells assessed as cell viability after 48 hrs by MTT assay; assay type: cell-based, Canis lupus familiaris; details: dog
[2] = Cytotoxicity against HEK293 cells assessed as cell viability after 24 hrs by MTT assay; assay type: cell-based; details: human
[3] = tested on: Influenza A virus; assay type: functional, organism-based; details: A/Puerto Rico/8/1934(H1N1), MDCK, 48 h
[4] = target: PA/PB1 (Influenza A virus (A/Puerto Rico/8/1934(H1N1)), UniProt P03431+P03433); assay: Inhibition of Influenza A virus (A/Puerto Rico/8/34(H1N1)) His6-tagged PA (239 to 716) interaction with GST-tagged PB1 (1 to 25) expressed in Escherichia coli BL21 (DE3) by ELISA
[5] = tested on: Influenza A virus; assay type: functional, organism-based; details: A/Puerto Rico/8/1934(H1N1), MDCK, 12 h
[6] = cells; details: Influenza A virus, HEK293, 24 h
[7] = tested on: Influenza A virus; assay type: functional, organism-based; details: A/Padova/30/2011(H1N1), MDCK, 48 h
[8] = tested on: Influenza B virus; assay: microbe, parasite or virus in culture; details: B/Lee/1940, MDCK, 48 h
[9] = tested on: Influenza A virus; assay type: functional, organism-based; details: A/Padova/72/2011(H1N1), MDCK, 48 h
[10] = tested on: Influenza A virus; assay type: functional, organism-based; details: A/Padova/253/2011(H1N1), MDCK, 48 h
[11] = tested on: Influenza A virus; assay type: functional, organism-based, Influenza A virus (A/Wisconsin/67/2005(H3N2)); details: MDCK, 48 h

Compound	CC50 at 48 h [1]	CC50 at 24 h [2]	EC50 [3]	IC50 [4]	further results
O=C(Nc1sc2c(c1C(=O)O)CCC2)c1ccccc1F	> 250 µM	> 250 µM	77 µM	159 µM	
O=C(Cc1ccccc1)Nc1sc2c(c1C(=O)Nc1ccccn1)CCCCC2	> 250 µM	220 µM	19 µM	> 200 µM	
O=C(Nc1sc2c(c1C(=O)O)CCCCC2)c1ccc(Cl)cc1				> 200 µM	
NC(=O)c1ncn([C@@H]2O[C@H](CO)[C@@H](O)[C@H]2O)n1 [RIBAVIRIN]	> 250 µM	> 250 µM	8 µM		EC50 [5]: 2 µM; EC50 [6]: 15 µM; EC50 [7]: 7 µM; EC50 [8]: 6 µM; EC50 [9]: 6 µM; EC50 [10]: 11 µM; EC50 [11]: 12 µM
O=C(Nc1sc2c(c1C(=O)Nc1ccccn1)CCCCC2)c1ccccc1				87 µM	
CSCC[C@H](N)C(=O)N[C@@H](CC(=O)O)C(=O)N[C@H](C(=O)N[C@@H](CC(N)=O)C(=O)N1CCC[C@H]1C(=O)N[C@H](C(=O)N[C@@H](CC(C)C)C(=O)N[C@@H](CC(C)C)C(=O)N[C@@H](Cc1ccccc1)C(=O)N[C@@H](CC(C)C)C(=O)N[C@@H](CCCCN)C(=O)N[C@H](C(=O)N1CCC[C@H]1C(=O)N[C@@H](C)C(=O)N[C@@H](CCC(N)=O)C(=O)O)C(C)C)[C@@H](C)O)C(C)C	> 100 µM	> 100 µM	40 µM	35 µM	
CCOC(=O)c1c(NC(=O)c2ccc(OC)cc2)sc2c1CCCCC2	> 250 µM	> 250 µM	95 µM	> 200 µM	
O=C(Cc1ccc(F)cc1)Nc1sc2c(c1C(=O)Nc1ccccn1)CCCCC2	> 250 µM	250 µM	16 µM	> 200 µM	
O=C(Nc1sc2c(c1C(=O)Nc1ccccn1)CCCCC2)c1cccc(F)c1				> 200 µM	
CCOC(=O)c1c(NC(=O)c2ccc(F)cc2)sc2c1CCCCC2	> 250 µM	> 250 µM	91 µM	> 200 µM	
O=C(CCc1ccc(F)cc1)Nc1sc2c(c1C(=O)Nc1ccccn1)CCCCC2				> 200 µM	
O=C(Nc1sc2c(c1C(=O)O)CCCCC2)c1ccccc1Cl				> 200 µM	
CCOC(=O)c1c(NC(=O)c2ccc(Cl)cc2)sc2c1CCCCC2	> 250 µM	> 250 µM	89 µM	> 200 µM	
O=C(CC1CCCCC1)Nc1sc2c(c1C(=O)Nc1ccccn1)CCCCC2				> 200 µM	
O=C(CCc1ccccc1)Nc1sc2c(c1C(=O)Nc1ccccn1)CCCCC2				> 200 µM	
NC(=O)c1c(NC(=O)c2ccccc2F)sc2c1CCCCC2				> 200 µM	
O=C(Nc1sc2c(c1C(=O)O)CCCCC2)c1ccccc1F	> 250 µM	> 250 µM	76 µM	200 µM	
CCOC(=O)c1c(NC(=O)c2ccccc2Cl)sc2c1CCCCC2	> 250 µM	> 250 µM	94 µM	> 200 µM	
Nc1sc2c(c1C(=O)Nc1ccccn1)CCCCC2				35 µM	

Compound	CC50 at 48 h [1]	CC50 at 24 h [2]	EC50 [3]	IC50 [4]	further results
O=C(Nc1sc2c(c1C(=O)Nc1ccccn1)CCCCC2)c1ccccc1Cl				134 µM	
O=C(Nc1ccccn1)c1c(NC(=O)C2CCCCC2)sc2c1CCCCC2				> 200 µM	
O=C(Cc1ccc(Cl)cc1)Nc1sc2c(c1C(=O)Nc1ccccn1)CCCCC2	> 250 µM	> 250 µM	19 µM	> 200 µM	
O=C(Nc1sc2c(c1C(=O)Nc1ccccn1)CCCCC2)c1ccc(F)cc1Cl				> 200 µM	
O=C(Nc1sc2c(c1C(=O)Nc1ccccn1)CCCCC2)c1ccc(Cl)cc1				32 µM	
O=C(Cc1ccc2ncccc2c1)Nc1sc2c(c1C(=O)Nc1ccccn1)CCCCC2	> 250 µM	> 250 µM	58 µM	48 µM	
O=C(Nc1sc2c(c1C(=O)Nc1ccccn1)CCCCC2)c1ccc(Cl)cc1Cl				> 200 µM	
O=C(Nc1sc2c(c1C(=O)Nc1ccccn1)CCC2)c1ccccc1F				> 200 µM	
CCOC(=O)c1c(NC(=O)c2ccccc2F)sc2c1CCC2	> 250 µM	> 250 µM	> 100 µM	> 200 µM	
NC(=O)c1c(NC(=O)c2ccccc2F)sc2c1CCC2				> 200 µM	
CCOC(=O)c1c(NC(=O)c2ccccc2F)sc2c1CCCCC2	> 250 µM	> 250 µM	78 µM	200 µM	
O=C(Nc1sc2c(c1C(=O)Nc1ccccn1)CCCC2)c1ccccc1F				> 200 µM	
COc1ccc(C(=O)Nc2sc3c(c2C(=O)O)CCCCC3)cc1				> 200 µM	
O=C(Nc1sc2c(c1C(=O)O)CCCCC2)c1ccc(F)cc1				> 200 µM	
COc1c(CC(=O)Nc2sc3c(c2C(=O)Nc2ccccn2)CCCCC3)sc2ccccc12	> 250 µM	> 250 µM	61 µM	90 µM	EC50 [5]: 6 µM; EC50 [6]: > 100 µM
O=C(CCc1ccc(Cl)cc1)Nc1sc2c(c1C(=O)Nc1ccccn1)CCCCC2				> 200 µM	
NC(=O)c1c(NC(=O)c2ccccc2F)sc2c1CCCC2	118 µM	31 µM	> 100 µM	> 200 µM	
O=C(Nc1sc2c(c1C(=O)Nc1ccccn1)CCCCC2)c1ccc(F)cc1				99 µM	
